We go through two compounds from PMC6120238, “Crystal structure of the retroviral protease‐like domain of a protozoal DNA damage‐inducible 1 protein” (FEBS Open Bio, 2018).

Structures are written as SMILES.

Assay [1] has as its target T1, LmDdi1_1–390 (LmDdi1) (Leishmania major, UniProt I7HUG0).
T1 construct: gene DDI1; full-length residues 1-390 (UBL, RVP and UBA domains), synthetic gene 1170 bp, N-terminal His6 tag (pET-28a, NdeI/HindIII), E. coli BL21; Ni-NTA and gel filtration; immobilised by the tag on Ni-NTA sensor; RVP domain homodimer in crystal; PDB 5YS4 from this construct, 5YQ8 from construct 184-390
T1 sequence (I7HUG0 1-390): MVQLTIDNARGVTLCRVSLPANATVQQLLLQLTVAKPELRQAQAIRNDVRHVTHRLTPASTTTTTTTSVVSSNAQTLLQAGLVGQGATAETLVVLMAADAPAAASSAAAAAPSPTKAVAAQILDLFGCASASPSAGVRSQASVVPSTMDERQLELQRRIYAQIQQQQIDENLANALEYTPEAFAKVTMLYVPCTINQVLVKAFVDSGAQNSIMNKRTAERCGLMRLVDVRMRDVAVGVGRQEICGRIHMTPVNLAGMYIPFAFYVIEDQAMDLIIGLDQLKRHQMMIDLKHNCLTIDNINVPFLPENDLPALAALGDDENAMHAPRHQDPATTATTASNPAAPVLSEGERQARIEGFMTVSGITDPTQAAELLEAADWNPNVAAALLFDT
The assay is described as follows: bio-layer interferometry, protein on Ni-NTA sensor, […] Langmuir global fit. In kind it is binding. (In general: In BLI a coated tip is dipped into the sample, and binding shifts an interference pattern.)

The target in assay [2] is T1, LmDdi1_1–390 (LmDdi1). Described as above. In kind it is binding. The following applies: 20 mM MES pH 6.0, 200 mM NaCl, 1% DMSO; inhibitor 75-600 μM; weak signal, affinity could not be quantified.

Regarding `CC(C)(C)NC(=O)[C@@H]1C[C@@H]2CCCC[C@@H]2CN1C[C@@H](O)[C@H](Cc1ccccc1)NC(=O)[C@H](CC(N)=O)NC(=O)c1ccc2ccccc2n1` [saquinavir], the equilibrium dissociation constant (Kd) – broadly, the free concentration of one partner at which half of the binding sites on the other are occupied at equilibrium, for simple one-to-one binding – at LmDdi1_1–390 (LmDdi1) [1] is 314 ± 12.8 µM.

Regarding `Cc1c(O)cccc1C(=O)N[C@@H](CSc1ccccc1)[C@H](O)CN1C[C@H]2CCCC[C@H]2C[C@H]1C(=O)NC(C)(C)C` [nelfinavir], on LmDdi1_1–390 (LmDdi1) [2], the “bio-layer interferometry, protein on Ni-NTA sensor, 1:1 Langmuir global fit” value was “Nelfinavir showed much less binding, and the binding affinity could not be quantified”.
